The record followed here is PubChem BioAssay (NCI).

Among the test systems are DMS 114 small cell lung; KM20L2 colon; HOP-18 NSCLC; P388/ADR leukemia; SNB-78 CNS; XF 498 CNS; DLD-1 colon; P388 leukemia; DMS 273 small cell lung; SN12K1 renal; LXFL 529 NSCLC.
Holding throughout (test): NCI tumour cell line growth inhibition, 48 h

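Results reflect a 48-hour exposure of cells in 96-well plates to compound at five concentrations. TGI: total growth inhibition.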

Take `CCCSCC(P(=O)(O)O)P(=O)(O)O`: the TGI in the assay with DMS 114 small cell lung, in the assay on KM20L2 colon, in the assay with HOP-18 NSCLC, in the assay with P388/ADR leukemia, with SNB-78 CNS and with XF 498 CNS was above 100 µM each time. Also, the TGI in the assay on DLD-1 colon, with P388 leukemia, in the assay on DMS 273 small cell lung and in the assay on SN12K1 renal was above 100 µM each time.

As to `Cc1cn(C2CC(O)C(CO)O2)c(=O)[nH]c1=O` (configuration not stated), the TGI with DMS 114 small cell lung is above 4670 µM; with KM20L2 colon it was above 5000 µM; with HOP-18 NSCLC, above 5000 µM; in the assay on P388/ADR leukemia it was 2650 µM; with SNB-78 CNS it was above 5000 µM; in the assay with XF 498 CNS it was 366 µM. Moreover, the TGI with DLD-1 colon is above 5000 µM; in the assay on P388 leukemia, 1970 µM; in the assay with DMS 273 small cell lung it was above 5000 µM; in the assay on SN12K1 renal it was 4530 µM.

In the case of `CC1=NS(=O)(=O)c2ccccc2N1`, the TGI in the assay with DMS 114 small cell lung, with KM20L2 colon, in the assay with HOP-18 NSCLC, in the assay with SNB-78 CNS, with DLD-1 colon and in the assay with LXFL 529 NSCLC was above 100 µM throughout. The TGI in the assay on DMS 273 small cell lung is above 100 µM.
